Laboratory results published in publication PMC4618646 (Pharmacology Research & Perspectives, 2015).
pIC50, pKi: −log10 of the molar value. Values after ≈ are worked out from the molar mass of the structure shown. Where two headings read alike, the source gives them in different places.

Legend:
[1] = phase II clinical trials for RA; ref Silverman et al. [2008]; cited from earlier work
[2] = test system: 314 diverse molecular targets; assay: Eurofins Panlabs broad in vitro panel, 10 μmol/L single concentration screen; details: at nine of 314 targets
Transporter, monoamine = assay: Transporter, monoamine; assay type: binding; details: Vesicular monoamine transporter (rabbit)
Adenosine A3 receptor [3] = biological target: T1, Adenosine A3 receptor (Homo sapiens, UniProt P0DMS8); assay: Adenosine A3 receptor; details: Radioligand binding Ki
T1 sequence (P0DMS8 1-318): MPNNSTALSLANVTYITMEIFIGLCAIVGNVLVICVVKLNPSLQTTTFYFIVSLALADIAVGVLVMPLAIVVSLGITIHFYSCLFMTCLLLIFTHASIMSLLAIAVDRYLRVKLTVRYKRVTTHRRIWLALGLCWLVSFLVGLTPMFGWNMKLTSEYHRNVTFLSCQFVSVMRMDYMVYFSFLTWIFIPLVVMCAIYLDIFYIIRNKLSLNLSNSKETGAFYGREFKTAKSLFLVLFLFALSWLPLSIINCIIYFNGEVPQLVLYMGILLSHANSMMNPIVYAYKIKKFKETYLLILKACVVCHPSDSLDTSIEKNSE

[4] = test system: Purified human recombinant kinases; assay type: biochemical; details: median estimate of curve top showing <50% inhibition
[5] = assay type: physicochemical
human kinases = assay type: binding; details: 10 μmol/L single concentration screen; for 197 of 387 kinases
Cathepsin S = Cathepsin S (Homo sapiens, UniProt P25774); assay: Cathepsin S; assay type: biochemical
[6] = biological target: T2, UDP glucuronosyltransferase, UGT1A1 (Homo sapiens, UniProt P22309); assay: UDP glucuronosyltransferase, UGT1A1; assay type: biochemical
T2 sequence (P22309 26-533): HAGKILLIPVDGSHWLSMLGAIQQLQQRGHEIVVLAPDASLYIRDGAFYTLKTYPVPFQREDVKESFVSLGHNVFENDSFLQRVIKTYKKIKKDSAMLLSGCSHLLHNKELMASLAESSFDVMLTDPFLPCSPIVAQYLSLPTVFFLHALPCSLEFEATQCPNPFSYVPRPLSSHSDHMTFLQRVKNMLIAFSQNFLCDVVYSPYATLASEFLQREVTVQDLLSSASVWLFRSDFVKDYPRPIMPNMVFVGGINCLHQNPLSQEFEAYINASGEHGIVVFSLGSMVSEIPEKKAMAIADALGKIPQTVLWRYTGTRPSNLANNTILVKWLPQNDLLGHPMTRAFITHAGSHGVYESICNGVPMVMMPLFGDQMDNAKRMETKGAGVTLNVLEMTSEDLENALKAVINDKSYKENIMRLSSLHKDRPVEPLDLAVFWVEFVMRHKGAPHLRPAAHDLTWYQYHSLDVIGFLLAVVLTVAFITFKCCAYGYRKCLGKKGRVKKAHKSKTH

Adenosine A3 receptor [7] = biological target: T1, Adenosine A3 receptor; assay type: biochemical
[8] = biological target: T3, Fatty acid amide hydrolase (FAAH) (Rattus norvegicus, UniProt P97612); assay: Fatty acid amide hydrolase; assay type: biochemical
T3 sequence (P97612 1-579): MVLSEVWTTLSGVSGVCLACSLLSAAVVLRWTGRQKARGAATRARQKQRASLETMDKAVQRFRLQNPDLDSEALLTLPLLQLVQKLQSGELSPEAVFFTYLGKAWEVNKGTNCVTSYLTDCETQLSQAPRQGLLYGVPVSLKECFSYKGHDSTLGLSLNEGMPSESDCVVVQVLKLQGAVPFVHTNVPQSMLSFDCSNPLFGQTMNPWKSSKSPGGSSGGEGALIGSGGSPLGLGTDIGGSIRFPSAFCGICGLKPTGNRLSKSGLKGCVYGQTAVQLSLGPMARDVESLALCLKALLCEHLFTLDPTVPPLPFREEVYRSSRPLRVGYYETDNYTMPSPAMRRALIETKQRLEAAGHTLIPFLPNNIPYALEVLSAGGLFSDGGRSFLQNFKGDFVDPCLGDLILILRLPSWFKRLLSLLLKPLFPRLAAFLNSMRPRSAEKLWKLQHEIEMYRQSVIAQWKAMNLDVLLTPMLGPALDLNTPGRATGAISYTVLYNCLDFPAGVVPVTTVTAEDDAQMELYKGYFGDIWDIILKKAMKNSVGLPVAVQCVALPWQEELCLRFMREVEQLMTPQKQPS

Lipoxygenase 5-LO = biological target: T4, Lipoxygenase 5-LO (Homo sapiens, UniProt P09917); assay: Lipoxygenase 5-LO; assay type: biochemical
T4 sequence (P09917 1-674): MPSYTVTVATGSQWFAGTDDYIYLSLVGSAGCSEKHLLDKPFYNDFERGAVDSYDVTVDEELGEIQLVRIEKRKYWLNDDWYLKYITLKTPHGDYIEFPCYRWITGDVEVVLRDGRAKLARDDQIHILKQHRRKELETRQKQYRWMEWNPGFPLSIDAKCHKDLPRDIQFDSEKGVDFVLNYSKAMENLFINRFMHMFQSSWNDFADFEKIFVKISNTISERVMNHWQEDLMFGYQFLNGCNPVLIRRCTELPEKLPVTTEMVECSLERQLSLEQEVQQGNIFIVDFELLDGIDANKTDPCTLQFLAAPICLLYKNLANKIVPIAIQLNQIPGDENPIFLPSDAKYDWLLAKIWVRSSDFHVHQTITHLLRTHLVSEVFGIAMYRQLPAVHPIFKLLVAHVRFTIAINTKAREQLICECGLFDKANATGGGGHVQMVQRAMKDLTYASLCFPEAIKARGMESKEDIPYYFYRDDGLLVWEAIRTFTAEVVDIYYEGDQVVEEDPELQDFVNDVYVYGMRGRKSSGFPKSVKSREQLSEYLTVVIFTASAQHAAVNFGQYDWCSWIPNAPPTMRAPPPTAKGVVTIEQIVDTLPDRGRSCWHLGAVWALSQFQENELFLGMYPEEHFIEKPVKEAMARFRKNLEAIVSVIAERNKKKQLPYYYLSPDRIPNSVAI

Cathepsin L = Cathepsin L (Homo sapiens, UniProt P07711); assay: Cathepsin L; assay type: biochemical
Phosphodiesterase PDE5 = Phosphodiesterase PDE5 (Homo sapiens, UniProt O76074); assay: Phosphodiesterase PDE5; assay type: biochemical
adenosine transporter = assay type: cell-based, human
[9] = ref Mikus et al. [2013]; cited from earlier work
KDR (VEGFR2) = assay: KDR inhibition measured in HUVEC cells; assay type: cell-based, human; details: from KDR IC50 data of ref McTigue et al. [2012]

Sequence of Cathepsin S (P25774 115-331): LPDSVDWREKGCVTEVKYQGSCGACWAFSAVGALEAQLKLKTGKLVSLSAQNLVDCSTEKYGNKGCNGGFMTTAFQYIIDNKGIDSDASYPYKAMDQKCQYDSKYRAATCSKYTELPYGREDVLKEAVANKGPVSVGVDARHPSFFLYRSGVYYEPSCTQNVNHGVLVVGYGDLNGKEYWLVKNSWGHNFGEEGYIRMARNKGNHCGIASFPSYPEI
Sequence of Cathepsin L (P07711 114-333): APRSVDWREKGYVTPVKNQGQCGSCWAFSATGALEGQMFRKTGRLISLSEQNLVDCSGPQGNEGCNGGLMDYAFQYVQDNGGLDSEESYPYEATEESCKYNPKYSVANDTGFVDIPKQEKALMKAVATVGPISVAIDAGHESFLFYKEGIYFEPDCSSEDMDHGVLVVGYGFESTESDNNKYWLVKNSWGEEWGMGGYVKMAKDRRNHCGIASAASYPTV

In the case of CNC(=O)[C@H]1O[C@@H](n2cnc3c(NCc4cccc(I)c4)ncnc32)[C@H](O)[C@@H]1O [CF101], the “adverse effects on blood pressure” value [1] is given as “no adverse effects on blood pressure”.
Molecule COc1cc(Nc2ncc(F)c(Nc3ccc4c(n3)NC(=O)C(C)(C)O4)n2)cc(OC)c1OC [R406] has an inhibition [2] greater than 50%, a pKi (Transporter, monoamine; read-out: Radioligand binding Ki) of 5.79 and a pIC50 (Transporter, monoamine; read-out: Radioligand binding or enzyme activity IC50) of 5.71. For the same molecule, the pKi (Adenosine A3 receptor [3]) was 7.77, the “activity in the remaining 19 of 139 kinase activity assays” value [4] was “inactive” and the solubility ([5]; solubility in DMSO, 100% DMSO) was roughly 140 mM (≈ 65.9 mg/mL). The solubility ([5]; solubility in phosphate-buffered saline, physiological pH) was 0.0002 mM (≈ 9.41e-05 mg/mL), the “inhibition of the qPCR signal” value (human kinases) was no less than 80% and the Mode of action (Cathepsin S; Cathepsin S (human)) was “Inhibitor”. The pIC50 (Cathepsin S; Radioligand binding or enzyme activity IC50, Cathepsin S (human)) was 4.92, the pIC50 ([6]; Radioligand binding or enzyme activity IC50, UDP glucuronosyltransferase UGT1A1 (human)) was 6.84 and the Mode of action ([6]; UDP glucuronosyltransferase UGT1A1 (human)) was “Inhibitor”. The Mode of action (Adenosine A3 receptor [7]; Adenosine A3 receptor (human)) was “Antagonist”, the “effect of R406 on its own on GTPγS binding” value (Adenosine A3 receptor [7]; concentrations up to 10 μmol/L, absence of agonist) was “no effect” and the Mode of action ([8]; Fatty acid amide hydrolase (rat)) was “Inhibitor”. For the same molecule, the pIC50 ([8]; Radioligand binding or enzyme activity IC50, Fatty acid amide hydrolase (rat)) was 5.82, the Mode of action (Lipoxygenase 5-LO; 5-Lipoxygenase (human)) was “Inhibitor” and the pIC50 (Lipoxygenase 5-LO; Radioligand binding or enzyme activity IC50, 5-Lipoxygenase (human)) was 5.26. For the same molecule, the Mode of action (Cathepsin L; Cathepsin L (human)) was “Inhibitor”, the pIC50 (Cathepsin L; Radioligand binding or enzyme activity IC50, Cathepsin L (human)) was 5.23 and the Mode of action (Phosphodiesterase PDE5; Phosphodiesterase PDE5 (human)) was “Inhibitor”. The pIC50 (Phosphodiesterase PDE5; Radioligand binding or enzyme activity IC50, Phosphodiesterase PDE5 (human)) was 6.51, the Mode of action (adenosine transporter; Adenosine transporter (human)) was “Inhibitor” and the pIC50 (adenosine transporter; read-out: IC50, inhibition of adenosine uptake, U937 cells, [^3H]adenosine) was 7.00.
For COc1ccc(C(=O)Nc2nc3ccccc3c(NCc3ccccc3)c2C#N)cc1 [SSR161421], the “effects in animal models of asthma” value [9] is given as “beneficial effects”.
With COc1cc2c(Oc3ccc4[nH]c(C)cc4c3F)ncnc2cc1OCCCN1CCCC1 [cediranib] the “fold more potent at KDR than sunitinib” value (KDR (VEGFR2)) was roughly 31 fold.
